{"source": "PubChem BioAssay (NCI)", "note": "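How tested: cells in 96-well plates exposed to compound for 48 hours at five concentrations. GI50 = concentration required for 50% inhibition of growth. TGI denotes the concentration required for complete inhibition of growth.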"}
{"tested_on": "UO-31 renal", "assay": "NCI-60 cell line screen, 48 h", "units": {"GI50": "µM", "TGI": "µM"}}
{"compound": "Cn1cc(-c2csc(-c3cn(C)c4ccc(F)cc34)n2)c2cnccc21", "GI50": 1.64, "TGI": 3.09}
{"compound": "COc1cc(OC)c2sc(-c3ccc(-n4cncc4-c4cc(OC)c(OC)c(OC)c4)cc3)nc2c1", "GI50": 2.27, "TGI": "> 100"}
{"compound": "Cc1cn2c(/C=N/N=C(N)N)c(-c3ccc(Cl)c([N+](=O)[O-])c3)nc2s1", "TGI": 3.4}
{"compound": "CN(C)CCNc1nc2ccccc2c2c(=O)c3cc(F)ccc3sc12", "GI50": 1.4, "TGI": 2.73}
{"compound": "O=C(CBr)c1ccc2cc(Br)c3ccccc3c2c1", "TGI": 62.7}
{"compound": "COc1ccc(-c2cc(-c3ccc(Nc4ccnc5cc(Cl)ccc45)cc3)nc(N3CCOCC3)n2)cc1", "GI50": "> 100", "TGI": "> 100"}
{"tested_on": "HCT-15 colon", "assay": "NCI-60 cell line screen, 48 h", "units": {"GI50": "µM", "TGI": "µM"}}
{"compound": "Cn1cc(-c2csc(-c3cn(C)c4ccc(F)cc34)n2)c2cnccc21", "GI50": 1.68, "TGI": 3.27}
{"compound": "COc1cc(OC)c2sc(-c3ccc(-n4cncc4-c4cc(OC)c(OC)c(OC)c4)cc3)nc2c1", "GI50": 5.48, "TGI": "> 100"}
{"compound": "CN(C)CCNc1nc2ccccc2c2c(=O)c3cc(F)ccc3sc12", "GI50": 1.57, "TGI": 3.08}
{"compound": "O=C(CBr)c1ccc2cc(Br)c3ccccc3c2c1", "TGI": "> 100"}
{"tested_on": "HS 578T breast", "assay": "NCI-60 cell line screen, 48 h", "units": {"GI50": "µM", "TGI": "µM"}}
{"compound": "Cn1cc(-c2csc(-c3cn(C)c4ccc(F)cc34)n2)c2cnccc21", "GI50": 2.36, "TGI": 5.12}
{"compound": "Cc1cn2c(/C=N/N=C(N)N)c(-c3ccc(Cl)c([N+](=O)[O-])c3)nc2s1", "TGI": "> 100"}
{"compound": "O=C(CBr)c1ccc2cc(Br)c3ccccc3c2c1", "TGI": 59.6}
{"tested_on": "DU-145 prostate", "assay": "NCI-60 cell line screen, 48 h", "units": {"GI50": "µM", "TGI": "µM"}}
{"compound": "Cn1cc(-c2csc(-c3cn(C)c4ccc(F)cc34)n2)c2cnccc21", "GI50": 1.74, "TGI": 3.16}
{"compound": "COc1cc(OC)c2sc(-c3ccc(-n4cncc4-c4cc(OC)c(OC)c(OC)c4)cc3)nc2c1", "GI50": "> 100", "TGI": "> 100"}
{"compound": "CN(C)CCNc1nc2ccccc2c2c(=O)c3cc(F)ccc3sc12", "GI50": 1.77, "TGI": 3.21}
{"compound": "O=C(CBr)c1ccc2cc(Br)c3ccccc3c2c1", "TGI": 46.4}
{"tested_on": "MALME-3M melanoma", "assay": "NCI-60 cell line screen, 48 h", "units": {"GI50": "µM", "TGI": "µM"}}
{"compound": "Cn1cc(-c2csc(-c3cn(C)c4ccc(F)cc34)n2)c2cnccc21", "GI50": 1.97, "TGI": 3.57}
{"compound": "COc1cc(OC)c2sc(-c3ccc(-n4cncc4-c4cc(OC)c(OC)c(OC)c4)cc3)nc2c1", "GI50": 3.73, "TGI": "> 100"}
{"compound": "CN(C)CCNc1nc2ccccc2c2c(=O)c3cc(F)ccc3sc12", "GI50": 1.65, "TGI": 3.15}
{"compound": "O=C(CBr)c1ccc2cc(Br)c3ccccc3c2c1", "TGI": 34.4}
{"tested_on": "MDA-MB-231 breast", "assay": "NCI-60 cell line screen, 48 h", "units": {"GI50": "µM", "TGI": "µM"}}
{"compound": "Cn1cc(-c2csc(-c3cn(C)c4ccc(F)cc34)n2)c2cnccc21", "GI50": 1.75, "TGI": 3.26}
{"compound": "COc1cc(OC)c2sc(-c3ccc(-n4cncc4-c4cc(OC)c(OC)c(OC)c4)cc3)nc2c1", "GI50": 3.51, "TGI": "> 100"}
{"compound": "CN(C)CCNc1nc2ccccc2c2c(=O)c3cc(F)ccc3sc12", "GI50": 1.47, "TGI": 2.88}
{"compound": "O=C(CBr)c1ccc2cc(Br)c3ccccc3c2c1", "TGI": 51.2}
{"compound": "COc1ccc(-c2cc(-c3ccc(Nc4ccnc5cc(Cl)ccc45)cc3)nc(N3CCOCC3)n2)cc1", "GI50": 7.52, "TGI": "> 100"}
{"tested_on": "SF-268 CNS", "assay": "NCI-60 cell line screen, 48 h", "units": {"GI50": "µM", "TGI": "µM"}}
{"compound": "Cn1cc(-c2csc(-c3cn(C)c4ccc(F)cc34)n2)c2cnccc21", "GI50": 1.93, "TGI": 3.79}
{"compound": "O=C(CBr)c1ccc2cc(Br)c3ccccc3c2c1", "TGI": 47}
{"compound": "COc1ccc(-c2cc(-c3ccc(Nc4ccnc5cc(Cl)ccc45)cc3)nc(N3CCOCC3)n2)cc1", "GI50": 6.23, "TGI": "> 100"}
{"tested_on": "OVCAR-5 ovarian", "assay": "NCI-60 cell line screen, 48 h", "units": {"GI50": "µM", "TGI": "µM"}}
{"compound": "Cn1cc(-c2csc(-c3cn(C)c4ccc(F)cc34)n2)c2cnccc21", "GI50": 1.68, "TGI": 3.15}
{"compound": "COc1cc(OC)c2sc(-c3ccc(-n4cncc4-c4cc(OC)c(OC)c(OC)c4)cc3)nc2c1", "GI50": "> 100", "TGI": "> 100"}
{"compound": "Cc1cn2c(/C=N/N=C(N)N)c(-c3ccc(Cl)c([N+](=O)[O-])c3)nc2s1", "TGI": 2.41}
